Test results published in PMC2593051, “Biochemical and Genetic Characterization of PspE and GlpE, Two Single-domain Sulfurtransferases of Escherichia coli” (The Open Microbiology Journal, 2008).
Where a name gives a salt, the structure may show the parent alone. One block for each molecule: values may come before it.

Tests used:
PspE (fraction PspE2) [1] = biological target: T1, PspE (fraction PspE2) (Escherichia coli, UniProt P23857); assay: chemical inactivation by cysteine reagent; assay type: biochemical; conditions: covalent; active-site cysteine; fraction PspE1 more tolerant than PspE2; data not shown
T1 construct: 85 residues, 9428 Da; untagged; overexpressed from pHC4.1 (pT7-7) in E. coli BL21(DE3), freeze-thaw extract, SP cation exchange; partly persulfide/sulfonate modified at single cysteine
T1 sequence (P23857 20-104): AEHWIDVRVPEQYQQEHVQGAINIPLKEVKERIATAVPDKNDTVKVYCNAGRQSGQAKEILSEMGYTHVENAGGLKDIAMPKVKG

PspE (fraction PspE2) [2] = biological target: T1, PspE (fraction PspE2); assay: rhodanese assay; assay type: biochemical; conditions: Tris-acetate pH 8.6; for % inhibition at 0.25 M: 250000 µM, anion inhibition
purified protein [3] = substrate: O=S(O)(O)=S; assay: purified protein; assay type: biochemical, Escherichia coli; conditions: pH 8.6; 25.0 °C
purified protein [4] = substrate: OC(CS)C(O)CS; assay: purified protein; assay type: biochemical, Escherichia coli; conditions: sulfur acceptor, 4 mM or 10 mM thiosulfate, Tris-acetate pH 8.6, PspE fraction not stated

Molecule: O=C(O)c1cc(SSc2ccc([N+](=O)[O-])c(C(=O)O)c2)ccc1[N+](=O)[O-] [5,5’-dithio-bis(2-nitrobenzoic acid)]
chemical inactivation by cysteine reagent (PspE (fraction PspE2) [1]): PspE1 was much more tolerant to chemical inactivation by the cysteine-modifying reagent

% inhibition at 0.25 M (PspE (fraction PspE2) [2]): ~ 65%
Molecule: O=P(O)(O)O [sodium phosphate]

Molecule: O=S(=O)(O)O [sodium sulfate]
% inhibition at 0.25 M (PspE (fraction PspE2) [2]): ~ 50%

% inhibition at 1 mM (PspE (fraction PspE2) [2]; rhodanese product as inhibitor, data not shown): > 50%
Molecule: O=S(O)O [sodium sulfite]

B1: PspE (fraction PspE2) (Escherichia coli K-12) (protein)
chain: T1 sequence (P23857 20-104)
notes: 85 residues, 9428 Da; untagged; overexpressed from pHC4.1 (pT7-7) in E. coli BL21(DE3), freeze-thaw extract, SP cation exchange; partly persulfide/sulfonate modified at single cysteine
Km (purified protein [3]): 2.7 mM
kcat (purified protein [3]): 64 s⁻¹
Km (purified protein [4]): 10 mM
